Measured values reported in patent US20200283728A1, “MODIFIED T CELLS AND USES THEREOF” (MUSC FOUNDATION FOR RESEARCH DEVELOPMENT, priority 2017, published 2020).

Experiments:
[1] = system: pmel-1 CD8^+ T cells; test: pmel-1 CD8+ T cells primed with AKTi or CAL-101 in culture: phenotype and expansion; assay type: cell-based, mouse
Procedure: (§1) Pmel-1 CD8^+ T cells were prepared from whole splenocytes activated using 1 μM hgp100 peptide+100 IU rhIL-2/mL. Starting 3 hours after initial activation, cells were treated with either DMSO vehicle, AKT inhibitor VIII (AKTi) (Calbiochem), or CAL-101 (Selleckchem) at indicated doses. Cells were supplemented with culture media containing 100 IU rhIL-2/mL and vehicle or drug when expanded. Human Normal Donor Peripheral T cells: Polyclonal CD3^+ T cells were prepared via negative bead selection (Dynal) from peripheral blood lymphocytes and activated using CD3/CD28 beads (Gibco) with 100 IU rhIL-2/mL DMSO vehicle, 1 μM or 10 μM AKTi or CAL-101 throughout culture as indicated. On day 2 of culture, T cells were engineered to be mesothelin specific via lentiviral transduction with an anti-mesothelin chimeric antigen receptor (CAR) which contained a single-chain variable fragment (scFv) fusion protein specific for mesothelin and linked to the T cell receptor ζ (TCRζ) signaling domain and 4-1BB as described previously (Carpenito et al., 2009) (gifts from the June lab).
(§2) Surface staining of Th17 cells was performed with anti-CD4-APCCy7, anti-Vβ14-FITC (BD Biosciences) anti-CD62L-APC, anti-CD44-PerCPCy5.5, anti-CCR6-PE, anti-CD69-PECy7, anti-CCR7-PE, anti-CD27-PE, anti-CD28-PerCPCy5.5, anti-ICOS-PE and anti-CD25-PECy7/FITC (BioLegend) and viability stain (Invitrogen) on day 8. For all intracellular staining of cytokines (anti-IL-17 PerCPCy5.5, anti-IFN-γ-v450, anti-IL-2-FITC, anti-IL-21-APC, anti-IL-22-PE, anti-TNF-α-FITC; BioLegend) and transcription factors (anti-RORγt-APC, anti-cMaf-PerCPCy5.5, anti-STAT-3-PE, anti-FoxP3-FITC/PE, anti-T-bet-v450; eBiosciences), cells were stimulated for 4-5 h with 50 ng/mL PMA and 750 ng/mL ionomycin (Sigma-Aldrich). Additional antibodies used include: CD127-PECy7 clone A019D5, CD25-APCCy7 clone BC96, CD4-APCCy7 OKT4, CD45RO-APC clone UCHL1, CD62L-FITC clone DREG-56, CD8-PerCPCy5.5 clone SKI, TIM3-PE clone F38-2E2 (biolegend); CCR7-PECy7 clone CCR7, CD8-V450 clone RPA-T8, PD1-FITC clone M1H4, (BD Biosciences). Antibodies used for mouse cell analysis: CD127-PE/V450 clone A7R34, CD25-FITC clone 7D4, CD44-PerCPCy5.5/FITC clone IM7, CD69-PECy7 clone HI.2F3, CD8-PerCPCy5.5 clone 53-6.7, CD8-PECy7 clone YTS156.7.7, PD1-PerCPCy5.5 clone 29F.1A12 V[…]13-PE/APC clone MR12-3/MR12-4 (Biolegend), CD4-APCCy7 clone RM4-5, CD62L-APC clone MEL-14, KLRG1-APC/V450 clone 2F1 (BD). After 1 h, Monensin (BioLegend) was added per manufacturer's instructions. After surface staining, intracellular staining for cytokines and transcription factors was performed using Fixation and Permeabilization buffers (BioLegend) and Foxp3 Staining Buffers (eBioscience), respectively. Flow cytometry acquisition was performed on a FACSVerse or Accuri (BD Bioscience). Data were analyzed with FlowJo software (TreeStar). For experiments with sorted cells, CD8^+Vb13^+ T cells were sorted from pmel-1 cultures using Dynabeads untouched mouse CD8^+ T cell kit (Invitrogen) and a FACSAria cell sorting machine (BD Biosciences).

[2] = system: human CD3^+ T cells; test: Human CD3+ T cells expanded with CD3/CD28 beads under CAL-101 or AKTi; assay type: cell-based
Procedure: as §1, §2

[3] = system: human T cells; test: RNA sequencing of CAL-101 or AKTi treated human T cells; assay type: cell-based; conditions: vs vehicle
Procedure: Library preparation: mRNA libraries were prepared in triplicate from each donor using the TruSeq RNA V2 kit(Illumina). Cleaved RNA fragments were copied into first strand cDNA then underwent second strand cDNA synthesis. End repair of cDNA fragments, single ‘A’ base addition and ligation to the adapter followed. The product was then purified and enriched with PCR to create the final cDNA library. Transcriptome sequencing: cDNA libraries were clonally clustered onto the sequencing flow cell using the c-BOT (Illumina) Cluster Generation Station and Hiseq Rapid Paired-End Cluster Kit v2 (Illumina). Clustered flow cells were sequenced on the Illumina HiSeq2500 Sequencing System using the Hiseq Rapid SBS Kit V2 (Illumina). Analysis: Differential gene expression analysis contrasting the factors representing different treatment protocols (CAL101 vs Vehicle; or AKTi vs Vehicle) was performed by running kallisto on the raw paired-end RNA sequencing data (in FASTQ format) to estimate transcript-level read counts based on Ensembl GRCh37 cDNA assembly for each sample (NCBI GEO database Accession Number: GSE101497). Estimated transcript-level counts were aggregated across official gene symbols using the tximport package with mapping provided by the biomaRt utility. […]

[4] = system: human T cells; test: Western blot of nuclear β-catenin, Lef1, Tcf7 in human T cells; assay type: cell-based
Procedure: (§3) Nuclear and cytoplasmic protein were isolated by lysis using Nuclear and Cytoplasmic Extraction Reagent with Protease&Phosphatase Inhibitor Cocktail (ThermoScientific). Protein concentration was quantified using […] (ThermoScientific) according to the manufacturer's instructions. 10 to 30 μg of total protein was separated on a Mini-PROTEAN TGX, Any kD™ gel, followed by transfer onto PVDF membrane (Bio-Rad). The membranes were blocked with 5% BSA in TBS buffer containing 0.5% Tween20. The membranes were then incubated overnight at 4° C. with the primary antibodies to β-catenin (BD Bioscience), p110δ, Tcf7 (Abcam), RORγt (Affymetrix) phospho-Akt, total-Akt, STAT-3, Histone-3, Lef1 (abcam), and GAPDH (Cell Signaling) at the concentration recommended by manufactures. Subsequently, membranes were washed and incubated for 1 h at room temperature with (HRP)-conjugated goat antibodies to mouse or rabbit IgG (Cell Signaling). For detection of protein, chemiluminescence method was performed using Western ECL Blotting Substrate (Bio-Rad) followed by X-ray film-based imaging method (ThermoScientific). Quantification of optical density performed using Fiji analysis software (NIH).

[5] = system: ICOS-activated Th17 cells; test: Transcription factor expression (RORγt, cMaf, STAT-3) in ICOS-activated Th17 cells; assay type: cell-based, mouse; conditions: day 8
Procedure: (§4) Expansion of Th17 cells with Wnt/β-catenin and PI3K inhibitors in vitro: TRP-1 splenocytes were activated with irradiated (10Gy) C57BL/6 splenocytes pulsed with TRP-1 peptide (1 μM) added at a 5:1 ratio in 24-well plates (1 mL media containing 1.5×10^6 cells/well). TRP-1 splenocytes were co-stimulated with soluble ICOS agonist (Clone 398.4A, BioLegend) and polarized toward Th17 phenotype as describe above. For in vitro expansion from day 0 of culture 10 μM Ly294002 (Cayman Chemical) or 10 μM CAL-101 (Selleckchem) and/or 60 μM indomethacin (Sigma-Aldrich) was added. Also dimethylosulfoxide 0.01% (Sigma-Aldrich) was added as a control. Th17 cultures were also supplemented with hrIL-2 (100 IU/mL) and rmIL-23 ([…]; R&D). Medium, including cytokines and inhibitors was refreshed every 2-3 days.
as §3, with “Subsequently, membranes were washed and incubated for 1 h at room temperature with (HRP)-conjugated goat antibodies to mouse or rabbit IgG (Cell Signaling). For detection of protein, chemiluminescence method was performed using Western ECL Blotting Substrate (Bio-Rad) followed by X-ray film-based imaging method (ThermoScientific).” left out
Surface staining of Th17 cells was performed with anti-CD4-APCCy7, anti-Vβ14-FITC (BD Biosciences) anti-CD62L-APC, anti-CD44-PerCPCy5.5, anti-CCR6-PE, anti-CD69-PECy7, anti-CCR7-PE, anti-CD27-PE, anti-CD28-PerCPCy5.5, anti-ICOS-PE and anti-CD25-PECy7/FITC (BioLegend) and viability stain (Invitrogen) on day 8. […] Data were analyzed with FlowJo software (TreeStar). […]

[6] = system: ICOS-activated Th17 cells; test: Cytokine production of ICOS-stimulated TRP-1 Th17 cells expanded with inhibitors (intracellular FACS); assay type: cell-based, mouse
Procedure: as §4, §2

[7] = system: ICOS-activated Th17 cells; test: Memory and regulatory phenotype of ICOS-stimulated Th17 cells expanded with inhibitors (flow cytometry); assay type: cell-based, mouse
Procedure: as §4
Surface staining of Th17 cells was performed with anti-CD4-APCCy7, anti-Vβ14-FITC (BD Biosciences) anti-CD62L-APC, anti-CD44-PerCPCy5.5, anti-CCR6-PE, anti-CD69-PECy7, anti-CCR7-PE, anti-CD27-PE, anti-CD28-PerCPCy5.5, anti-ICOS-PE and anti-CD25-PECy7/FITC (BioLegend) and viability stain (Invitrogen) on day 8. For all intracellular staining of cytokines (anti-IL-17 PerCPCy5.5, anti-IFN-γ-v450, anti-IL-2-FITC, anti-IL-21-APC, anti-IL-22-PE, anti-TNF-α-FITC; BioLegend) and transcription factors (anti-RORγt-APC, anti-cMaf-PerCPCy5.5, anti-STAT-3-PE, anti-FoxP3-FITC/PE, anti-T-bet-v450; eBiosciences), cells were stimulated for 4-5 h with 50 ng/mL PMA and 750 ng/mL ionomycin (Sigma-Aldrich). Additional antibodies used include: CD127-PECy7 clone A019D5, CD25-APCCy7 clone BC96, CD4-APCCy7 OKT4, CD45RO-APC clone UCHL1, CD62L-FITC clone DREG-56, CD8-PerCPCy5.5 clone SKI, TIM3-PE clone F38-2E2 (biolegend); CCR7-PECy7 clone CCR7, CD8-V450 clone RPA-T8, PD1-FITC clone M1H4, (BD Biosciences). […] Data were analyzed with FlowJo software (TreeStar). […]

[8] = system: Wnt/β-catenin pathway; test: Wnt/β-catenin pathway expression in Th17 cells (Western blot, real-time PCR); assay type: cell-based, mouse; conditions: re-stimulation in vitro; compared to control Th17 cells
Procedure: Total RNA isolation was performed using the Trizol method (Life Technologies) according to the manufacturer's procedure. RNA quantity and purity was assessed using a NanoDrop ND-1000. 1 μg total RNA was transcribed with Transcriptor First Strand cDNA Synthesis Kit (Roche). qReal-time PCR was performed on LightCycler480 machine following manufacturer's protocols (Roche). Probes utilized include Rorc, IL-17, Cmaf IL-21, Cpt-1a, Tcf-7, Lef-1, Cnnb1. All probes are commercially available (ABI). Relative gene expression was determined by the comparative CT method (45). β-actin was used as housekeeping gene.
as §3

[9] = 8 days of expansion, CAL-101 10 μM, Indo 60 μM, Ly294002 10 μM, vs un-treated Th17 cells

For `O=c1[nH]c2ccccc2n1C1CCN(Cc2ccc(-c3nc4cc5[nH]cnc5cc4nc3-c3ccccc3)cc2)CC1` [AKTi], the “logarithmic expansion of mouse pmel-1 CD8+ T cells” value ([1]; 10 μM drug) was “neither 10 μM AKTi or 10 μM CAL-101 impaired”, the CD69 expression ([1]; 5 days of culture) was “decreased” and the “cells expressing CD62L” value ([1]; 5 days of culture, vehicle 65%) was “nearly all”. The CD25 expression ([1]; in culture) was “slightly reduced”, the CD127 expression ([1]; in culture) was “substantially elevated” and the CD25 expression [2] was “did not impact”. The CD45RO levels [2] was “similar”, the “growth of human T cells” value ([2]; 10 μM drug, 8 days) was “dramatically inhibited growth” and the CD62L expression ([2]; over vehicle) was “slightly increased”. For the same compound, the TIM3 expression ([2]; post-activation, vs untreated T cells) was “prevented the up-regulation”, the “effector transcripts Fos, JunB, Gzmb, Ifng” value [3] was “down-regulated” and the “nuclear Lef1 protein” value [4] was “slightly higher, though not statistically significant”. The “nuclear Tcf7 protein” value ([4]; over vehicle) was “did not”.

`CC[C@H](Nc1ncnc2[nH]cnc12)c1nc2cccc(F)c2c(=O)n1-c1ccccc1` [CAL-101] was tested, and the cMaf expression ([5]; control 62.9±4.8%) was 42.5±3.9%, the RORγt expression ([5]; control 65.5±9.5%) was 21.9±8.1% and the STAT-3 expression ([5]; control approximately 83%) was 13.8±5.2%. For the same compound, the “CD62L+ cells before transfer” value ([1]; sort experiment, bulk vehicle 37%) was 97%.

With `O=c1cc(N2CCOCC2)oc2c(-c3ccccc3)cccc12` [Ly294002, 2-(4-morpholinyl)-8-phenyl-4H-1-benzopyran-4-one] the IFN-γ production [6, 9] was “suppress”, the IL-17A production [6, 9] was “suppress” and the “cytokine secretion pattern overall” value ([6]; compared with the results for CAL-101 or Indo plus CAL-101) was “Similarly results were obtained”. For the same compound, the “FoxP3 and CD25 expression” value ([7]; cultured 8 days and upon secondary stimulation in vitro) was “expressed more FoxP3 and CD25”, the “central memory phenotype (CD44^highCD62L^high)” value ([7]; day 8 in vitro) was “also supported generation of TCM17 cells” and the “Tcf7 protein level after re-stimulation” value [8] was “could not replace the CAL-101 effect on Tcf7 overexpression”.
